# Assay results as given in PubChem BioAssay AID2305 (GlaxoSmithKline (GSK), 2010).
# “And” between values parts separate entries of the source, which are not always exact repeats. Equal values may be shown once.
# Test system: P. falciparum 3D7 growth, pLDH absorbance
# Experiment: P. falciparum 3D7 growth inhibition, dose response, strain 3D7 (AID 2305)
row,SMILES,IC50
1,O=C(/C=C/c1ccc(Cl)c(Cl)c1)NCCCCCN1CCCN(C(=O)Nc2ccc(C(F)(F)F)cc2)CC1,690 nM
2,CC(C)C[C@H](NC(=O)c1ccc(OCCN2CCOCC2)cc1)C(=O)N[C@H](/C=N/NC(=O)OC(C)(C)C)CCc1ccccc1,160 nM
3,Cc1ccccc1CCNC(=O)c1ccc(N2CCN(c3ccncc3)CC2)nc1,1390 nM
4,COc1ccc2nccc([C@@H](O)CN3CCC(NCc4cc5ccccc5s4)CC3)c2c1,350 nM
5,COc1cccc(-c2ccc(O)c(CNCCc3cccc(F)c3)c2)n1,910 nM
6,Cc1ccc2nc3ccccc3c(NCCN3CCN(C)CC3)c2c1,590 nM
7,COc1cc(CCCON2C(N)=NC(N)=NC2(C)C)cc(OC)c1OC,40 nM
8,NC1=NC2(CCCC2)C(c2ccc(Cl)c(Cl)c2)C(N)=N1 (stereo not given),990 nM
9,Cc1cccc2[nH]c(-c3ccc(-c4cccc(CN5CCN(CCN6CCOCC6)CC5)c4)s3)nc12,150 nM
10,COc1cccc(CN2CCCC(CCC(=O)Nc3ccc(C(F)(F)F)cc3)C2)c1O (stereo not given),750 nM
11,c1ccc(-n2ncc(CNCc3ccc(-c4cccc(-c5nc6ccccc6[nH]5)c4)cc3)n2)cc1,1230 nM
12,c1ccc(Oc2ccc(Nc3ccnc4cc(-c5csc(CN6CCCCC6)n5)ccc34)cc2)nc1,580 nM
13,O=C(NCCCCN1CCC(c2ccc3c(c2OCCOCCO)CCCC3)CC1)c1ccc(-c2ccc(C(F)(F)F)cc2)cc1,280 nM
14,Cc1cccc2[nH]c(-c3cccc(-c4ccc(NC(=O)CN5CCN(C)CC5)cc4)c3)nc12,560 nM
15,Cc1cccc(CN2CCCN(Cc3ccc(C(=O)Nc4ccc(C(C)(C)C)cc4)cc3)CC2)c1,730 nM
16,O=C(Nc1cc(C(F)(F)F)cc(C(F)(F)F)c1)c1cccc([N+](=O)[O-])c1,890 nM
17,Cc1nc2nc(N)nc(N)c2c(C)c1Cc1ccccc1,250 nM
18,Cc1nc2ccccc2c(=O)n1N=Cc1ccccc1[N+](=O)[O-],220 nM
19,COc1ccc(NC(=O)c2ccc(-c3nc(-c4ccc(Cl)cc4)cs3)cc2)cc1N1CCN(C)CC1,920 nM
20,COc1ccc(Nc2nccc(N3CCC(NC(=O)Nc4ccc5c(c4)OCO5)C3)n2)cc1 (stereo not given),600 nM
21,CCCCN1C(=O)[C@H]2CC(=O)CC(C3CCCCC3)[C@H]2C1=O (stereo not given in full),890 nM
22,O=C(Nc1cccc(C(F)(F)F)c1)c1cccc(S(=O)(=O)NCC2CCCN(CC3CCCCC3)C2)c1 (stereo not given),880 nM
23,O=C(C=Cc1ccc(-c2ccccc2)cc1)NC1CCC(CN2CCC(c3c[nH]c4ccccc34)CC2)CC1 (stereo not given),810 nM and 740 nM
24,CC(=O)N(Cc1nc(-c2cc(Cl)c(Cl)s2)cs1)c1c(C)cccc1C,330 nM
25,Cc1cc(N[C@@H](Cc2ccccc2)C(=O)NCCc2ccccc2)nc(NCCOc2ccccc2)n1,1000 nM

row,SMILES,IC50
1,Cc1cccc2[nH]c(-c3ccc(-c4ccc(CN5CCC(CCN6CCCCC6)CC5)cc4)cc3)nc12,140 nM
2,COc1cccc(Nc2nc(C)cc(NCc3ccc(-c4c(C)noc4C)cc3)n2)c1,880 nM
3,Cc1ccc(Nc2nc(C)cc(Nc3cccc(C#N)c3)n2)cc1,980 nM
4,CC(O)C1CCCCN1C(=O)c1cccc(-c2cccc(-c3nc4ccc(F)cc4[nH]3)c2)c1 (stereo not given),540 nM
5,CN(C)S(=O)(=O)c1ccc(N2C(=O)[C@@H]3[C@H](C2=O)[C@@]2(c4ccccc4)C(=O)[C@]3(c3ccccc3)C(c3ccccc3)=C2c2ccccc2)cc1,950 nM
6,COc1ccc2c(NN=Cc3ccc(F)cc3)ccnc2c1,440 nM
7,CN1CCN(CC(O)CNC(=O)Nc2ccc(Cl)cc2)CC1 (stereo not given),230 nM
8,CC(C)N1CCC(NCc2ccc(-c3ccc(Cl)cc3)cc2)CC1,650 nM
9,Cc1cc(=O)c2cc(Oc3ccc(OC(F)(F)F)cc3)ccc2[nH]1,990 nM
10,CCN(CC)CCCN(C(=O)c1cc2c(C)nn(-c3ccccc3)c2s1)c1nc(-c2ccc(OC)cc2)cs1,1150 nM
11,COc1ccc(C(=O)Nc2ccc(-c3nc4ccc(C)cc4[nH]3)cc2)cc1OC,760 nM
12,NC(N)=NCCCN(Cc1ccccc1)c1ccccc1,580 nM
13,O=C(NCC1CCN(Cc2ccc3c(c2)OCCO3)C1)c1cc(-c2cccc(C(F)(F)F)c2)cs1 (stereo not given),980 nM
14,Cc1ccc2c(C3=CCN(CCCCC4(C)C(=O)Nc5ccccc54)CC3)c(C)[nH]c2c1 (stereo not given),370 nM
15,COc1cccc2cc(C(=O)N[C@@H](CC(C)C)C(=O)N[C@H](/C=N/NC(=O)c3ccccc3)Cc3cnc[nH]3)oc12,130 nM
16,COc1cc(-c2ccc3c(-c4ccc(C(=O)N5CCN(C)CC5)cc4)[nH]nc3n2)cc(OC)c1OC,1330 nM
17,Cc1cccc2[nH]c(-c3ccc(-c4ccc(CN5CCN(c6ccc(C#N)cn6)CC5)cc4)s3)nc12,1130 nM
18,CN(C)CCOc1cccc(-c2cnc(N)c(-c3nc4ccc(S(C)(=O)=O)cc4[nH]3)c2)c1,950 nM
19,O=C(Nc1ccc(Cl)cc1)c1cc(Cl)cc2[nH]c(C(F)(F)F)nc12,130 nM
20,CC(C)(C)Nc1nc(Nc2cccc([N+](=O)[O-])c2)nc(-n2ccnc2)n1,810 nM
21,COc1ccc(Nc2ncc3c(-c4cccc(NC(=O)c5ccc(N)cc5)c4)c[nH]c3n2)cc1OC,970 nM
22,CN(C)CCNCc1nc(-c2ccc3c(Nc4ccc(Cl)cc4F)ccnc3c2)cs1,810 nM
23,O=C1C(c2ccccc2)=C(Nc2cc(Cl)cc(Cl)c2)c2ccccc21,370 nM
24,COc1ccc(CCN(C)CCOc2ccc(NC(=O)c3cccc4c(=O)c5cc(SC)ccc5[nH]c34)cc2)cc1OC,740 nM
25,O=C(c1cc(-c2ccco2)[nH]n1)N1CCN(S(=O)(=O)c2ccc(Cl)cc2)CC1,360 nM
